Source: ChEMBL document CHEMBL1201862, “PubChem BioAssay data set” (2004)
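How tested: cells in 96-well plates exposed to compound for 48 hours at five concentrations. At the GI50, growth is halved.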 Active and inactive are the calls of the source. Cut-off read from the data, not from the text of the source: active = GI50 up to about 1.1 µM and inactive = higher.

Tests used:
Experiment in all cases: inhibition of tumour cell growth, NCI panel, 48 h
[1] = tested on: DLD-1
[2] = tested on: SF-539
[3] = tested on: LOX IMVI
[4] = tested on: HL-60
[5] = tested on: MOLT-4
[6] = tested on: SF-295
[7] = tested on: UO-31
[8] = tested on: SNB-19
[9] = tested on: RPMI-8226
[10] = tested on: OVCAR-3
[11] = tested on: SK-MEL-5
[12] = tested on: KM-20L2
[13] = tested on: XF498
[14] = tested on: DMS-114
[15] = tested on: SF-268
[16] = tested on: A498
[17] = tested on: RXF 393
[18] = tested on: HCT-116
[19] = tested on: HT-29
[20] = tested on: NCI/ADR-RES
[21] = tested on: HCT-15
[22] = tested on: IGROV-1
[23] = tested on: CCRF-CEM
[24] = tested on: Malme-3M
[25] = tested on: CAKI-1
[26] = tested on: NCI-H522
[27] = tested on: U-251
[28] = tested on: SK-OV-3
[29] = tested on: M19-MEL
[30] = tested on: SNB-78
[31] = tested on: OVCAR-4
[32] = tested on: A549
[33] = tested on: SNB-75
[34] = tested on: HOP-18
[35] = tested on: OVCAR-8
[36] = tested on: HOP-92
[37] = tested on: NCI-H23
[38] = tested on: EKVX
[39] = tested on: DMS-273
[40] = tested on: MCF7
[41] = tested on: HOP-62
[42] = tested on: SK-MEL-28
[43] = tested on: KM12
[44] = tested on: UACC-257
[45] = tested on: SK-MEL-2
[46] = tested on: SN12C
[47] = tested on: K562
[48] = tested on: HCC 2998
[49] = tested on: OVCAR-5
[50] = tested on: SW-620
[51] = tested on: NCI-H460
[52] = tested on: NCI-H226
[53] = tested on: UACC-62
[54] = tested on: COLO 205
[55] = tested on: LXFL 529
[56] = tested on: TK-10
[57] = tested on: SR
[58] = tested on: M14
[59] = tested on: 786-0
[60] = tested on: ACHN

Question: What does the source list for `CC(C)=CCC/C(C)=C/CCC1(C)C=Cc2c(c3ccccc3oc2=O)O1` (configuration not stated)?
Answer: GI50 [1]: 14.7 µM (inactive); GI50 [2]: 16.1 µM (inactive); GI50 [3]: 18 µM (inactive); GI50 [4]: 23.8 µM (inactive); GI50 [5]: 20.6 µM (inactive); GI50 [6]: 18.8 µM (inactive); GI50 [7]: 15.5 µM (inactive); GI50 [8]: 20.5 µM (inactive); GI50 [9]: 18.2 µM (inactive); GI50 [10]: 18.1 µM (inactive); GI50 [11]: 14.7 µM (inactive); GI50 [12]: 19.4 µM (inactive); GI50 [13]: 15.5 µM (inactive); GI50 [14]: 15.8 µM (inactive); GI50 [15]: 20.6 µM (inactive); GI50 [16]: 13.4 µM (inactive); GI50 [17]: 3.71 µM (inactive); GI50 [18]: 14.8 µM (inactive); GI50 [19]: 18.8 µM (inactive); GI50 [20]: 16.7 µM (inactive); GI50 [21]: 16 µM; GI50 [22]: 16.4 µM (inactive); GI50 [23]: 38.5 µM (inactive); GI50 [24]: 27.6 µM (inactive); GI50 [25]: 17.2 µM (inactive); GI50 [26]: 14.7 µM (inactive); GI50 [27]: 15.3 µM (inactive); GI50 [28]: 27.3 µM (inactive); GI50 [29]: 17.3 µM (inactive); GI50 [30]: > 56.2 µM (inactive); GI50 [31]: 14.5 µM (inactive); GI50 [32]: 17.5 µM (inactive); GI50 [33]: 13.4 µM (inactive); GI50 [34]: 17.3 µM (inactive); GI50 [35]: 16.7 µM (inactive); GI50 [36]: 12.2 µM (inactive); GI50 [37]: 14.8 µM (inactive); GI50 [38]: 18.5 µM (inactive); GI50 [39]: 16.9 µM (inactive); GI50 [40]: 16.5 µM (inactive); GI50 [41]: 13.2 µM (inactive); GI50 [42]: 16.1 µM (inactive); GI50 [43]: 18.5 µM (inactive); GI50 [44]: 17.1 µM (inactive); GI50 [45]: 17.4 µM (inactive); GI50 [46]: 16.8 µM (inactive); GI50 [47]: 23.6 µM (inactive); GI50 [48]: 17.7 µM (inactive); GI50 [49]: 18.6 µM (inactive); GI50 [50]: 19.4 µM (inactive); GI50 [51]: 15.8 µM (inactive); GI50 [52]: 16.1 µM (inactive); GI50 [53]: 10.2 µM (inactive); GI50 [54]: 19.1 µM (inactive)

Question: With `O=C1NC(c2ccc(O)cc2)C2CCC1C2` (configuration not stated) as the molecule, how does the GI50 [1] read?
Answer: Its GI50 is > 100 µM (inactive).

Question: And the GI50 [55]?
Answer: The GI50 was > 100 µM (inactive).

Question: What about the GI50 [4] of the same molecule?
Answer: The GI50 was > 100 µM (inactive).

Question: And the GI50 [5]?
Answer: The GI50 was > 100 µM (inactive).

Question: What about the GI50 [56] of the same molecule?
Answer: The GI50 was > 100 µM (inactive).

Question: And the GI50 [57]?
Answer: The GI50 was > 100 µM (inactive).

Question: And the GI50 [6]?
Answer: Its GI50 is > 100 µM (inactive).

Question: And the GI50 [7]?
Answer: The GI50 was > 100 µM (inactive).

Question: What about the GI50 [8] of the same molecule?
Answer: The GI50 was > 100 µM (inactive).

Question: And the GI50 [9]?
Answer: Its GI50 is > 100 µM (inactive).

Question: And the GI50 [10]?
Answer: The GI50 was > 100 µM (inactive).

Question: What about the GI50 [11] of the same molecule?
Answer: Its GI50 is > 100 µM (inactive).

Question: And the GI50 [12]?
Answer: The GI50 was > 100 µM (inactive).

Question: What about the GI50 [13] of the same molecule?
Answer: Its GI50 is > 100 µM (inactive).

Question: What about the GI50 [14] of the same molecule?
Answer: The GI50 was > 100 µM (inactive).

Question: And the GI50 [15]?
Answer: The GI50 was > 100 µM (inactive).

Question: What about the GI50 [16] of the same molecule?
Answer: Its GI50 is > 100 µM (inactive).

Question: What about the GI50 [18] of the same molecule?
Answer: Its GI50 is > 100 µM (inactive).

Question: What about the GI50 [19] of the same molecule?
Answer: Its GI50 is > 100 µM (inactive).

Question: And the GI50 [22]?
Answer: Its GI50 is > 100 µM (inactive).

Question: What about the GI50 [23] of the same molecule?
Answer: Its GI50 is > 100 µM (inactive).

Question: And the GI50 [24]?
Answer: The GI50 was > 100 µM (inactive).

Question: What about the GI50 [25] of the same molecule?
Answer: Its GI50 is > 100 µM (inactive).

Question: What about the GI50 [26] of the same molecule?
Answer: The GI50 was > 100 µM (inactive).

Question: And the GI50 [58]?
Answer: Its GI50 is > 100 µM (inactive).

Question: And the GI50 [27]?
Answer: The GI50 was > 100 µM (inactive).

Question: What about the GI50 [28] of the same molecule?
Answer: Its GI50 is > 100 µM (inactive).

Question: And the GI50 [29]?
Answer: The GI50 was > 100 µM (inactive).

Question: And the GI50 [30]?
Answer: Its GI50 is > 100 µM (inactive).

Question: And the GI50 [59]?
Answer: The GI50 was > 100 µM (inactive).

Question: And the GI50 [31]?
Answer: Its GI50 is > 100 µM (inactive).

Question: And the GI50 [32]?
Answer: The GI50 was > 100 µM (inactive).

Question: What about the GI50 [33] of the same molecule?
Answer: The GI50 was > 100 µM (inactive).

Question: And the GI50 [60]?
Answer: The GI50 was > 100 µM (inactive).

Question: What about the GI50 [35] of the same molecule?
Answer: Its GI50 is > 100 µM (inactive).

Question: And the GI50 [36]?
Answer: Its GI50 is > 100 µM (inactive).

Question: What about the GI50 [37] of the same molecule?
Answer: The GI50 was > 100 µM (inactive).

Question: And the GI50 [38]?
Answer: The GI50 was > 100 µM (inactive).

Question: And the GI50 [41]?
Answer: The GI50 was > 100 µM (inactive).

Question: What about the GI50 [42] of the same molecule?
Answer: The GI50 was > 100 µM (inactive).

Question: And the GI50 [43]?
Answer: Its GI50 is > 100 µM (inactive).

Question: And the GI50 [44]?
Answer: Its GI50 is > 100 µM (inactive).

Question: And the GI50 [45]?
Answer: Its GI50 is > 100 µM (inactive).

Question: What about the GI50 [46] of the same molecule?
Answer: Its GI50 is > 100 µM (inactive).

Question: And the GI50 [47]?
Answer: Its GI50 is > 100 µM (inactive).

Question: And the GI50 [48]?
Answer: The GI50 was > 100 µM (inactive).

Question: And the GI50 [49]?
Answer: The GI50 was > 100 µM (inactive).

Question: And the GI50 [50]?
Answer: The GI50 was > 100 µM (inactive).

Question: What about the GI50 [51] of the same molecule?
Answer: Its GI50 is > 100 µM (inactive).

Question: And the GI50 [52]?
Answer: The GI50 was > 100 µM (inactive).

Question: What about the GI50 [53] of the same molecule?
Answer: The GI50 was > 100 µM (inactive).

Question: What about the GI50 [54] of the same molecule?
Answer: The GI50 was > 100 µM (inactive).

Question: Which results are given for `COc1ccc(C2Oc3c(c(O)cc4c3[C@H](c3ccc(O)cc3O)[C@H](O)C(c3ccc(O)c(O)c3)O4)C[C@@H]2O)cc1O` (some centres not stated)?
Answer: GI50 [1]: > 100 µM (inactive); GI50 [2]: > 100 µM (inactive); GI50 [55]: > 100 µM (inactive); GI50 [3]: > 100 µM (inactive); GI50 [4]: > 100 µM (inactive); GI50 [5]: > 100 µM (inactive); GI50 [56]: > 100 µM (inactive); GI50 [57]: > 100 µM (inactive); GI50 [6]: > 100 µM (inactive); GI50 [7]: > 100 µM (inactive); GI50 [8]: > 100 µM (inactive); GI50 [9]: > 100 µM (inactive); GI50 [10]: > 100 µM (inactive); GI50 [11]: > 100 µM (inactive); GI50 [12]: > 100 µM (inactive); GI50 [14]: > 100 µM (inactive); GI50 [15]: > 100 µM (inactive); GI50 [16]: > 100 µM (inactive); GI50 [17]: > 100 µM (inactive); GI50 [18]: > 100 µM (inactive); GI50 [19]: > 100 µM (inactive); GI50 [21]: > 100 µM; GI50 [22]: > 100 µM (inactive); GI50 [23]: > 100 µM (inactive); GI50 [24]: > 100 µM (inactive); GI50 [25]: > 100 µM (inactive); GI50 [26]: > 100 µM (inactive); GI50 [58]: > 100 µM (inactive); GI50 [27]: > 100 µM (inactive); GI50 [28]: > 100 µM (inactive); GI50 [29]: > 100 µM (inactive); GI50 [30]: > 100 µM (inactive); GI50 [59]: > 100 µM (inactive); GI50 [31]: > 100 µM (inactive); GI50 [32]: > 100 µM (inactive); GI50 [33]: > 100 µM (inactive); GI50 [34]: > 100 µM (inactive); GI50 [60]: > 100 µM (inactive); GI50 [35]: > 100 µM (inactive); GI50 [36]: > 100 µM (inactive); GI50 [37]: > 100 µM (inactive); GI50 [38]: > 100 µM (inactive); GI50 [39]: > 100 µM (inactive); GI50 [41]: > 100 µM (inactive); GI50 [43]: > 100 µM (inactive); GI50 [44]: > 100 µM (inactive); GI50 [45]: > 100 µM (inactive); GI50 [46]: > 100 µM (inactive); GI50 [47]: > 100 µM (inactive); GI50 [48]: > 100 µM (inactive); GI50 [49]: > 100 µM (inactive); GI50 [50]: > 100 µM (inactive); GI50 [51]: > 100 µM (inactive); GI50 [52]: > 100 µM (inactive); GI50 [53]: > 100 µM (inactive); GI50 [54]: > 100 µM (inactive)
